Blank lines part the entries; values can stand above or below the compound they belong to.
Experiments:
human Corpus Cavernosum = test: Relaxation of the human Corpus Cavernosum in vitro; settings: FIG. 1a
From the text: A. Relaxation of the Human Corpus Cavernosum in vitro by Means of S-nitroso-N-acetylcysteine ethyl ester, S-nitroso-N-(O-acetylsalicyl)cysteine ethyl ester and Their Metabolites
a. Relaxation of the human Corpus Cavernosum in vitro by S-nitroso-N-acetylcysteine-ethylester (SNACET), S-nitroso-N-(O-acetylsalicyl)cysteine ethyl ester (ASS-SNCET) and their metabolites SNCET and SNAC.

[1] = in vivo in an animal; cited from earlier work
[2] = In vivo metabolism of orally applied 15N-marked SNACET in the rat (urine, GC-MS); settings: oral 17.5 mg/kg
Experimental: In vivo Metabolism of Orally Applied ^15N-marked S-nitroso-N-acetylcysteine ethyl ester (^15N-SNACET) in the Rat
A male Sprague Dawley rat weighing 480 g is orally given 17.5 mg of ^15N-marked S-nitroso-N-acetylcysteine ethyl ester (^15N-SNACET) per kg body weight, dissolved in 1 ml of a 10% (w/v) glucose solution in drinking water. Before and up to 24 hours after application, urine is collected and the ^15N-concentration of nitrate, nitrite and S-nitroso metabolites of ^15N-SNACET is determined by means of GC-MS.
Metabolism of orally applied ^15N-marked S-nitroso-N-acetylcysteine-ethylester (17.5 mg/kg body weight) in a rat. ^15N-concentration of nitrate, nitrite and for the sum of ^15N-marked S-nitroso-N-acetylcysteine ethyl ester and its metabolites collected in the urine before and up to 24 hours after the application.

human arteria mammaria = test: Relaxation of the human arteria mammaria in vitro; settings: FIG. 1b
From the text: B. Relaxation of the Human Arteria Mammaria in vitro by S-nitroso-N-acetylcysteine ethyl ester and S-nitro-N-acetylcysteine ethyl ester
b. Relaxation of the human arteria mammaria in vitro by S-nitroso-N-acetylxysteine ethyl ester (SNACET) and S-nitro-N-acetylcysteine ethyl ester (SNO2ACET).

[3] = Penetration by human Tunica albuginea in vitro in a Franz' cell; type: in vitro ADME; settings: SNACET in dimethyl sulphoxide, FIG. 2
Experimental: Penetration of S-nitroso-N-acetylsysteine ethyl ester (SNACET) by Human Tunica albuginea in vitro
Part of Tunica albuginea which has just been prepared is fixed in a Franz' cell. The active surface is 1.77 cm^2. The acceptor phase (10 ml) consists of Hank's buffer (pH 7.4), human albumin (30 g/l), penicillin G (100 units) and streptomycin (10 μg) and is stirred with a magnetic stirrer at a constant rotation speed. The penetration is started by application of solutions of SNACET in dimethyl sulphoxide at various concentrations (0.25 ml) on the part of the skin. At various points in time, samples are taken from the acceptor phase and the concentration of the sum from SNACET and its metabolites is determined. In the acceptor phase, unmodified SNACET and other metabolites including nitrite are detected. […] The penetration rate and the amount of the penetrated SNACET and their metabolites in the acceptor phase depend on the amount of SNACET applied onto the Tunica albuginea. The lag time is approximately 20 min. In the linear region, the penetration rates are 1.0, 2.5 or 5.0 μmol SNACET/hour.
Penetration of S-nitroso-N-acetylcysteine ethyl ester (SNACET) by human Tunica albuginea in vitro in a Franz' cell. Three different amounts dissolved in dimethyl sulphoxide (250 μl each) were applied (see Legend).

human blood platelets = test: Inhibition of collagen-induced aggregation of washed human blood platelets in vitro; type: cell-based; settings: Platelet, collagen-induced (2 μg/ml)
Experimental: Inhibition of the Aggregation of Human Blood Platelets in vitro by Means of S-nitroso-N-acetylcysteine ethyl ester (SNACET) and S-nitroso-N-(O-acetylsalicyl)cysteine ethyl ester (ASS-SNCET)
(§1) Collagen-induced (2 μg/ml) aggregation and thromboxane synthesis in human blood platelets which have been washed are inhibited by SNACET in a concentration-dependent manner (FIG. 4a). The IC50s for the inhibition of the platelet aggregation and the thromboxane synthesis by SNACET are determined at 1 and 0.5 μM. Collagen-induced (2 μg/ml) aggregation of human blood platelets that have been washed is inhibited by ASS-SNCET in a concentration-dependent manner (FIG. 4b). The IC50 for the inhibition of the platelet aggregation by ASS-SNCET is determined at 2 μM (FIG. 4b).
(§2) a. Inhibition of the collagen-induced (2 μg/ml) aggregation of human blood platelets that have been washed and the thromboxane synthesis in the platelets in vitro by S-nitroso-N-acetylcysteine ethyl ester (SNACET).
b. Inhibition of the collagen-induced (2 μg/ml) aggregation of human blood platelets in vitro that have been washed by S-nitroso-N-(O-acetylsalicyl)cysteine ethyl ester (ASS-SNCET). The values are average values from analyses with platelets of four healthy subjects.

Sprague Dawley rat = test: Hypotensive effect in vivo in the rat (i.v. infusion, average artery blood pressure); settings: anaesthetised male Sprague Dawley rat, FIG. 3
From the text: Hypotensive Effect of SNACET in vivo in the Rat
S-nitroso-N-acetylcysteine-ethylester (SNACET) is applied i.v. to a male, anaesthetised Sprague Dawley rat which has a weight of 400 g. Before and after the infusion, the average artery blood pressure is taken continuously.
Hypotensive effect of SNACET in vivo in the rat. SNACET was applied i.v. with the infusion rates stated.

[4] = tested on: thromboxane synthesis in human blood platelets; test: Inhibition of collagen-induced thromboxane synthesis in washed human blood platelets in vitro; type: cell-based; settings: Platelet, collagen-induced (2 μg/ml)
Experimental: as §1, §2

[5] = in vitro and in vivo, humans; cited from earlier work
[6] = humans; cited from earlier work

Compound: CC(=O)N[C@@H](CSN=O)C(=O)O [SNAC, S-nitroso-N-acetylcysteine]
Relaxation of human Corpus Cavernosum (human Corpus Cavernosum): relax human Corpus Cavernosum in vitro in a concentration-dependent manner

Compound: S-nitroso-N-acetyl penicillamines [SNAP]
Development of tolerance [1]: show no development of tolerance

Compound: CCOC(=O)[C@@H](N)CSN=O [SNCET, S-nitroso-cysteine ethyl ester]
Relaxation of human Corpus Cavernosum (human Corpus Cavernosum): relax human Corpus Cavernosum in vitro in a concentration-dependent manner

Time of the highest 15N-concentration in urine [2]: within the first two hours | Main metabolite in urine ([2]; urine up to 24 hours): ^15N-nitrate
Compound: CCOC(=O)[C@H](CS[15N]=O)NC(C)=O [^15N-SNACET, ^15N-marked S-nitroso-N-acetylcysteine ethyl ester]
15N-concentration in the urine 24 hours after the administration ([2]; 24 hours): insignificantly higher than the natural occurrence of ^15N | Secretion of unchanged compound and S-nitroso metabolites into the urine ([2]; urine up to 24 hours): neither ^15N-SNACET no other S-[^15N]nitroso-containing metabolites are secreted into the urine

Compound: CCOC(=O)[C@H](CS[N+](=O)[O-])NC(C)=O [SNO2-ACET, S-nitro-N-acetylcysteine ethyl ester]
Relaxation of human arteria mammaria (human arteria mammaria): relax human arteria mammaria in vitro in a concentration-dependent manner

Penetration of the Tunica albuginea [3]: penetrates the Tunica albuginea | IC50 (human blood platelets): 1000 nM | IC50 [4]: 500 nM
Compound: CCOC(=O)[C@H](CSN=O)NC(C)=O [SNACET, S-nitroso-N-acetylcysteine ethyl ester]
Relaxation of human arteria mammaria (human arteria mammaria): relax human arteria mammaria in vitro in a concentration-dependent manner | Average artery blood pressure (Sprague Dawley rat): the average artery blood pressure decreases in dependence on the infusion rate | Relaxation of human Corpus Cavernosum (human Corpus Cavernosum): relax human Corpus Cavernosum in vitro in a concentration-dependent manner

Compound: N[C@@H](CCC(=O)N[C@@H](CSN=O)C(=O)NCC(=O)O)C(=O)O [S-nitroso glutathion, S-nitroso-L-glutathion]
Anti-hypertensive and anti-aggregatory effect [5]: have an anti-hypertensive and an anti-aggregatory effect in humans | Rate of embolism [6]: reduces the rate of embolism in humans

Reference: patent US6613937B2, “S-nitroso- and S-nitro-N-acyl-L-cysteine ester derivatives as pharmalogically active agents and pharmaceutical compositions containing said compounds” (priority 1999, dated 2003)
